These are literature values, as cited in patent publication US20090081206A1, “METHOD AND PHARMACEUTICAL COMPOSITION FOR INHIBITING PREMATURE RAPTURE OF FETAL MEMBRANES, RIPENING OF UTERINE CERVIX AND PRETERM LABOR IN MAMMALS” (priority 1997, published 2009).

Like-named read-outs stand apart in the source and are kept apart here.

For data set [1] the following is noted: severe pregnancy-induced hypertension.
For data set [2] the following is noted: patches, only 13 cases studied.
The conditions of data set [3]: intravaginal tablets.
For data set [4] the following is noted: for need for additional oxytocin: compared with 100% in placebo.
The conditions of data set [5]: 3-mg intravaginal pessaries, mixed group of multigravidae and primigravidae.
The conditions of data set [6]: women with cervical Bishop score of 4-5.
The conditions of data set [7]: in vivo.
Assay in data set [8]: not given
The source holds these as a separate data set.

Setting [9] is: after single 3-mg suppository alone.

On to `O=[N+]([O-])OCC(CO[N+](=O)[O-])O[N+](=O)[O-]` [GTN, glycerol trinitrate], for which, in data set [1], the “reduction of capillary wedge pressure” value is reported as 30% and the “reduction of mean arterial blood pressure” value is on record as 25%. The “suppression of preterm labor, safety and tolerability” value in data set [2] is “safe, well-tolerated and non-invasive method of suppressing preterm labor”.
Regarding `CCCCC[C@H](O)/C=C/[C@H]1[C@H](O)CC(=O)[C@@H]1C/C=C\CCCC(=O)O` [PGE2, prostaglandin E2], the “patients induced successfully (achieving active labor)” value in [3] (multigravidae, 1-mg group) is given as 39.1%; in data set [3] (multigravidae, 5-mg group), 62.2%; in data set [3] (primigravidae, 1-mg group), 29.6%; in data set [3] (primigravidae, 5-mg group) it was 62.9%. For the same compound, the “established labor and delivered their infants without oxytocin augmentation” value in [4] (multigravidae, 2.5-mg vaginal suppositories) is reported as 81%; in data set [4] (primigravidae, 5-mg vaginal suppositories) it was 63%. The figures for the “need for additional oxytocin” value in [4] (multigravidae) and in [4] (primigravidae) were 19.1% and 37.5%, respectively. Also, the treatment-to-delivery interval in [4] (shorter compared with controls) was 7.6 to 11.6 h. Moreover, the “success rate for induced labor” value in data set [5] is listed as 55%. Also, under setting [9], the “mean time to labor” value was 1.5 h. Moreover, the “patients in whom labor was achieved” value under setting [9] is recorded as 98%. Besides, the “additional oxytocin augmentation needed” value is on record as 14% (multifarious women) and 71% (nulliparous women). In addition, the “vaginal birth within 24 hours” value in data set [6] is listed as 17 of 19.
Turning to `CC[C@H](C)[C@@H]1NC(=O)[C@H](Cc2ccc(O)cc2)NC(=O)[C@@H](N)CSSC[C@@H](C(=O)N2CCC[C@H]2C(=O)N[C@@H](CC(C)C)C(=O)NCC(N)=O)NC(=O)[C@H](CC(N)=O)NC(=O)[C@H](CCC(N)=O)NC1=O` [oxytocin], the plasma half-life in data set [7] was 5 to 17 min. The “antidiuretic and pressor activity relative to vasopressin” value in [8] was 1%. Moreover, the “vaginal birth within 24 hours” value in [6] is recorded as 8 of 19.
